# Target: T1, human TLR7 (Homo sapiens, UniProt Q9NYK1)
# T1 construct: expressed in transfected cells; host or cells: HEK293 (hTLR7/seap-293), stably transfected
# T1 sequence (Q9NYK1 27-1049): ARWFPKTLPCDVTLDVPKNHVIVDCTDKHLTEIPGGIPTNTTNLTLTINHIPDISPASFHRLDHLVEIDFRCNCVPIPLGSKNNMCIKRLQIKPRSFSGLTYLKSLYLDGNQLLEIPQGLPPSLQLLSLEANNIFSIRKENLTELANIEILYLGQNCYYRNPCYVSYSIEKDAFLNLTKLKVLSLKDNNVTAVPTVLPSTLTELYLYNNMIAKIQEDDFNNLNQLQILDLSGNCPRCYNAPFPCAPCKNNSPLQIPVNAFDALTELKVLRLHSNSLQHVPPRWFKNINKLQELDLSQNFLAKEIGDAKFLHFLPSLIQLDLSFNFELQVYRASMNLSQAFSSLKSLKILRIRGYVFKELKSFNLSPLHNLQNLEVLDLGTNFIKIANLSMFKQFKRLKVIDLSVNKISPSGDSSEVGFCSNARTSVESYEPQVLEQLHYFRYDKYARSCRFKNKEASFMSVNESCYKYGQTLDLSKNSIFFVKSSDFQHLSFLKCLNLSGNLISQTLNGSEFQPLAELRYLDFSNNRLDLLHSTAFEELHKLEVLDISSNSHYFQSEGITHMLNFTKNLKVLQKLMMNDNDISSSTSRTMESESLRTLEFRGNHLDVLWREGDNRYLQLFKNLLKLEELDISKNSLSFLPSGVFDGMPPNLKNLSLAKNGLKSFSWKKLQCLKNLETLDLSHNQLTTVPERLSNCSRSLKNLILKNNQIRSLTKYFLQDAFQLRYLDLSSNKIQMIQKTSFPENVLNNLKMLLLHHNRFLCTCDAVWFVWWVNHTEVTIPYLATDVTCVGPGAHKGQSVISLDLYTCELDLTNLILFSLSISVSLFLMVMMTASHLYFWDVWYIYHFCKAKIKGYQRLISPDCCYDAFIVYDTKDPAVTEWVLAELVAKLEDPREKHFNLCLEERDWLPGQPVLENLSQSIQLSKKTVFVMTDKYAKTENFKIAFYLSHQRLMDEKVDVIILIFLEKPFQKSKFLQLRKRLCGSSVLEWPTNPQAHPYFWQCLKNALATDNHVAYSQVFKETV
# Assay: Human TLR7 reporter assay (NF-kB-SEAP in HEK293 cells)
# Type: cell-based
# Settings: HEK293 cells stably carrying human TLR7 plasmid and NF-kB-SEAP reporter plasmid; 20 hours culture; final concentration 1 nM-10 μM; absorbance 405 nm; read-out: Human TLR7 binding activity (EC50)
# Description: Human TLR7 Reporter Assay
# HEK293 cells in which human TLR7 or rat TLR7 plasmid and reporter plasmid (NF-kB-SEAP) are stably introduced are dispersed in DMEM broth (10% FBS, 1% NEAA, 10 ug/mL blastocidin S HCl, 100 ug/mL Zeocin), and were seeded to 96 well plate per 90 μl/well (hTLR7/seap-293:20000 cells/well, rTLR7/seap-293:25000 cells/well).
# Test compound (DMSO stock solution (2 μl) was diluted with the broth (200 μl) by 100 times) was added to the seeded cells to a 96 well plate (10 μl/well) (final concentration; 1 nM-10 μM, common ratio 3). After stirring by tapping side of the plate, the cells were cultured in a CO2 incubator for 20 hours. A substrate (50 μl/well) for reporter assay (substrate for SEAP, pNPP) was added to cells stimulated by test sample. Ten minutes after adding the substrate, the reaction quenching solution (4N NaOH) was added by 50 μl/well to cease enzymatic reaction. Sealing a top seal A on the plate, the absorbance was measured by a micro plate reader (405 nm).
row,SMILES,EC50
1,"CCCCOc1nc(N)c2[nH]c(=O)n(CCCCCN3CCCC(CC(=O)OC)C3)c2n1 (stereo not drawn) [Example 3, 2-Butoxy-7,8-dihydro-9-[5-(3-methoxycarbonylmethylpiperidin-1-yl)pentyl]-8-oxoadenine]",571 nM
2,"CCCCOc1nc(N)c2[nH]c(=O)n(CCN3CCN(CCC(=O)OC)CC3)c2n1 [Example 7, 2-Butoxy-7,8-dihydro-9-[2-{4-(2-methoxycarbonylethyl)piperazin-1-yl}ethyl]-8-oxoadenine]",4790 nM
3,"CCCCOc1nc(N)c2[nH]c(=O)n(CCCN3CCC(CC(=O)OC)CC3)c2n1 [Example 11, 2-Butoxy-7,8-dihydro-9-{3-[4-(2-methoxy-2-oxoethyl)piperidin-1-yl]propyl}-8-oxoadenine]",3240 nM
4,"CCCCOc1nc(N)c2[nH]c(=O)n(CCCN3CCC(C(=O)OC)CC3)c2n1 [Example 8, 2-Butoxy-7,8-dihydro-9-[3-(4-methoxycarbonylpiperidin-1-yl)propyl]-8-oxoadenine]",1230 nM
5,"CCCCOc1nc(N)c2[nH]c(=O)n(CCCN3CCCC(CC(=O)OC)C3)c2n1 (stereo not drawn) [Example 12, 2-Butoxy-7,8-dihydro-9-{3-[3-(2-methoxy-2-oxoethyl)piperidin-1-yl]propyl}-8-oxoadenine]",1610 nM
6,"CCCCOc1nc(N)c2[nH]c(=O)n(CCCCN3CCCC(C(=O)OC)C3)c2n1 (stereo not drawn) [Example 19, 2-Butoxy-7,8-dihydro-9-[4-(3-methoxycarbonylpiperidin-1-yl)butyl]-8-oxoadenine]",631 nM
7,CCCCOc1nc(N)c2[nH]c(=O)n(CCCCCCCN3CCC(C(=O)OC)CC3)c2n1 [Example 16],145 nM
8,"CCCCOc1nc(N)c2[nH]c(=O)n(CCCN3CCCC(C(=O)OC)C3)c2n1 (stereo not drawn) [Example 9, 2-Butoxy-7,8-dihydro-9-[3-(3-methoxycarbonylpiperidin-1-yl)propyl]-8-oxoadenine]",989 nM
9,"CCCCOc1nc(N)c2[nH]c(=O)n(CCCCCCCCN3CCC(C(=O)OC)CC3)c2n1 [Example 17, 2-Butoxy-7,8-dihydro-9-[8-(4-methoxycarbonylpiperidin-1-yl)octyl]-8-oxoadenine]",148 nM
10,"CCCCOc1nc(N)c2[nH]c(=O)n(CCCCCCN3CCC(C(=O)OC)CC3)c2n1 [Example 15, 2-Butoxy-7,8-dihydro-9-[6-(4-methoxycarbonylpiperidin-1-yl)hexyl]-8-oxoadenine]",95.2 nM
11,"CCCCOc1nc(N)c2[nH]c(=O)n(CCCCCN3CCC(C(=O)OC)CC3)c2n1 [Example 1, 2-Butoxy-7,8-dihydro-9-[5-(4-methoxycarbonylpiperidin-1-yl)pentyl]-8-oxoadenine]",145 nM
12,"CCCCOc1nc(N)c2[nH]c(=O)n(CCN3CCCC(C(=O)OC)C3)c2n1 (stereo not drawn) [Example 5, 2-Butoxy-7,8-dihydro-9-[2-(3-methoxycarbonylpiperidin-1-yl)ethyl]-8-oxoadenine]",807 nM

# — patent publication US20090192153A1, “NOVEL ADENINE COMPOUND” (priority 2005, published 2009)
